Measured values as given in publication PMC4950319, “Kinetic and structural characterization of amyloid‐β peptide hydrolysis by human angiotensin‐1‐converting enzyme” (The Febs Journal, 2016).
Where no end group is shown, it is not given here. [ ]: non-standard residue; d: D form. The star is where a group is joined. Tyr(3-NO2) = N[C@@H](Cc1ccc(O)c([N+](=O)[O-])c1)C(=O)O; EDDnp = O=[N+]([O-])c1ccc(NCCN*)c([N+](=O)[O-])c1; 2Abz = Nc1ccccc1C(=O)O

What was measured:
sACE (human ACE) = settings: cited from earlier work; for interdomain cooperativity: human ACE enzymes; for degree of cooperativity between domains: compared with many synthetic peptides
Description: Due to the C‐domain's poorer hydrolysis of Aβ we can infer that the C‐domain appears ...

[1] = molecular target: full-length domain knockout variant of human sACE with only the C-domain active (C-sACE) (human) (UniProt P12821)
Chain of full-length domain knockout variant of human sACE with only the C-domain active (C-sACE) (human) (P12821 other isoform, or with tags, fused parts or gaps, change not shown): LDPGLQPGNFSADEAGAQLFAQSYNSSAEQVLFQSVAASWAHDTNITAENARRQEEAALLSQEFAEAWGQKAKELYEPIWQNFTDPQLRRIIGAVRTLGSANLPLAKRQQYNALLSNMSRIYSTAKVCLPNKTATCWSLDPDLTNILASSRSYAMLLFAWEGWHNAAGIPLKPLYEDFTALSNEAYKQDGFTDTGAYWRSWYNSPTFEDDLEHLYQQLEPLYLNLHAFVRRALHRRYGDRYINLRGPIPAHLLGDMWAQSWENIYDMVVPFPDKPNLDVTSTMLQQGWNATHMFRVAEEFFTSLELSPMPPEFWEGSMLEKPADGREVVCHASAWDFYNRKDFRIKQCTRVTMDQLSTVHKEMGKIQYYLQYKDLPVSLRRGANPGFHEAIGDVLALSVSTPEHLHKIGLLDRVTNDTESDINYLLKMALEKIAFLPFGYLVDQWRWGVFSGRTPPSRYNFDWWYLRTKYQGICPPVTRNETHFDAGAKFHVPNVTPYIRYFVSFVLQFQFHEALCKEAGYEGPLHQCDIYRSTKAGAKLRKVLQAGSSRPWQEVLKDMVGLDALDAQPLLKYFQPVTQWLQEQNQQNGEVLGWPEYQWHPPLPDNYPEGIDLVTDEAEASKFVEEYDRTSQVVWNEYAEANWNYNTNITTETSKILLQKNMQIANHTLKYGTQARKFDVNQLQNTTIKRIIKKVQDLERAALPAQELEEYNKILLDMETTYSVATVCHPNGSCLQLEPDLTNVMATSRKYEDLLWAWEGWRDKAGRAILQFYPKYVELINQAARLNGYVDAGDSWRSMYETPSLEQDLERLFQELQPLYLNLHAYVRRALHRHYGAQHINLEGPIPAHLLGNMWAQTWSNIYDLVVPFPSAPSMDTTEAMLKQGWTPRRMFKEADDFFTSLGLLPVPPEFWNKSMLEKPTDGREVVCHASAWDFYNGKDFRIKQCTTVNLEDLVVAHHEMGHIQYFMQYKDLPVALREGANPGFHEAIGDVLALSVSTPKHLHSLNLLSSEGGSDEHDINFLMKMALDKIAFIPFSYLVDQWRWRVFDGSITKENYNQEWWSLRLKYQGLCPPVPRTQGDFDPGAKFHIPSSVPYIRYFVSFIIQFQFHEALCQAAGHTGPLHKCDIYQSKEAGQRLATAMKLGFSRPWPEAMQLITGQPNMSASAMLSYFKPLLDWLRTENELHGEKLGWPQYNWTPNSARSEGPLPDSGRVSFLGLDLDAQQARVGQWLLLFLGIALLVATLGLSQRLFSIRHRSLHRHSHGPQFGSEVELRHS

[2] = molecular target: full-length domain knockout variant of human sACE with only the N-domain active (N-sACE) (human) (UniProt P12821)
Chain of full-length domain knockout variant of human sACE with only the N-domain active (N-sACE) (human) (P12821 other isoform, or with tags, fused parts or gaps, change not shown): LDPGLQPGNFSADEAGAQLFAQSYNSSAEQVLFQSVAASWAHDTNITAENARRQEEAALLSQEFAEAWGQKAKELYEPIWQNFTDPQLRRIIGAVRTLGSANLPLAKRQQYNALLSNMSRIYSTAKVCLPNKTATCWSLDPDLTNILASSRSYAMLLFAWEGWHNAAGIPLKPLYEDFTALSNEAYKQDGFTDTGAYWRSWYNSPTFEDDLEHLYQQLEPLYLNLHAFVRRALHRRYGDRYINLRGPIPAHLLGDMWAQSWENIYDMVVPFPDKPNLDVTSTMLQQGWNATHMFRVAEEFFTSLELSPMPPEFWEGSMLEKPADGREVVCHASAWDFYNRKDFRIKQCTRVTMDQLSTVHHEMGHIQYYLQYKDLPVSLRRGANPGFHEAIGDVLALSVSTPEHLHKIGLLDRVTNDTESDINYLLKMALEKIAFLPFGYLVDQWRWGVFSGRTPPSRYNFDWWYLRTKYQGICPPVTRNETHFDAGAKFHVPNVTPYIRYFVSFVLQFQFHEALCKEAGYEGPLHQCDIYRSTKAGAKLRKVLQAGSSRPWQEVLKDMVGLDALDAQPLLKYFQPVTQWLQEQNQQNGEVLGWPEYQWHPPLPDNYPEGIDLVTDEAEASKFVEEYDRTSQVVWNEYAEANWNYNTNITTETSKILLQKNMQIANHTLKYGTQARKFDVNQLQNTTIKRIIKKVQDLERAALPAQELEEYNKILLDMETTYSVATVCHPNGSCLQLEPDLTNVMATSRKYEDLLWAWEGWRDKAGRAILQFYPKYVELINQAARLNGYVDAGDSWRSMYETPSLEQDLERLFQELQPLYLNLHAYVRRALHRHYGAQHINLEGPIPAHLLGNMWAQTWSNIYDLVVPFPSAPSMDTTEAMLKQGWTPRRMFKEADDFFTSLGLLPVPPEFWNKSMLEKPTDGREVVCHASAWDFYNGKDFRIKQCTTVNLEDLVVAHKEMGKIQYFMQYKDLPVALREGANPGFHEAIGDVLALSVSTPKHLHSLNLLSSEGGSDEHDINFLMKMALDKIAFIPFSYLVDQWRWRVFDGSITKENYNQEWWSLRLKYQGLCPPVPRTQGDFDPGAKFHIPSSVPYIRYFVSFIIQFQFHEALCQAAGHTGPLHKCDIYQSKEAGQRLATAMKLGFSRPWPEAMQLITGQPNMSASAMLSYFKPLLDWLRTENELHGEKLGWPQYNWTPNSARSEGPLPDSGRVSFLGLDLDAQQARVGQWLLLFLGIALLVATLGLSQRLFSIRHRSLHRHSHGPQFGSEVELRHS

[3] = molecular target: full-length domain knockout variant of human sACE with only the C-domain active (C-sACE) (human) (UniProt P12821); remark: listed apart in the source
[4] = molecular target: full-length domain knockout variant of human sACE with only the N-domain active (N-sACE) (human) (UniProt P12821); remark: listed apart in the source

Row | Molecule | interdomain cooperativity (sACE (human ACE)) | degree of cooperativity between domains (sACE (human ACE)) | further results
1 | angiotensin I (DRVYIHPFHL; Angiotensin-1; UniProt P01019 25-34, looked up) [physiological ACE substrate] | showed a similar result for angiotensin I and angiotensin‐(1‐7) but not angiotensin‐(1‐9) |  | 
2 | angiotensin‐(1‐7) (DRVYIHP; Angiotensin 1-7; UniProt P01019 25-31, looked up, fragment) [physiological substrate] | showed a similar result for angiotensin I and angiotensin‐(1‐7) but not angiotensin‐(1‐9) |  | 
3 | angiotensin‐(1‐9) (DRVYIHPFH; Angiotensin 1-9; UniProt P01019 25-33, looked up, fragment) [physiological substrate] | showed a similar result for angiotensin I and angiotensin‐(1‐7) but not angiotensin‐(1‐9) | considerably less than many synthetic peptides | 
4 | bradykinin (RPPGFSPFR; Bradykinin; UniProt P01042 381-389, looked up) [vasodilatory peptide, physiological substrate] |  | considerably less than many synthetic peptides | 
5 | [2Abz]FRHDSG[Tyr(3-NO2)] [Aβ(4–10)Y (Abz-FRHDSG-(NT))] |  |  | Km of hydrolysis of Aβ(4–10)Y (fluorescence assay, read at 5 min) [1]: 38.1 µM; Km of hydrolysis of Aβ(4–10)Y (fluorescence assay, read at 5 min) [2]: 8.56 µM
6 | [2Abz]FRHDSGQ-EDDnp [Aβ(4–10)Q (Abz-FRHDSG(Q)-EDDnp)] |  |  | Km of hydrolysis of Aβ(4–10)Q (fluorescence assay, 45 min, 37 °C, 50 mM Hepes pH 7.5, 100 mM NaCl, 10 μM ZnSO4) [3]: 11.5 μM; Km of hydrolysis of Aβ(4–10)Q (fluorescence assay, 45 min, 37 °C, 50 mM Hepes pH 7.5, 100 mM NaCl, 10 μM ZnSO4) [4]: 42.4 μM
